Measurements reported in US12281363B2, “Methods for detecting antiviral-drug resistant virus” (Secretary of State for Health and Social Care, priority 2018, dated 2025).
pIC50: −log10 of the molar value. Read-outs that look alike come from different tables or passages of the source.

Tested on: HSV-1
Assay: Plaque reduction assay, HSV-1 clinical isolates on Vero cells
Type: cell-based
Conditions: Human alphaherpesvirus 1, Vero
Excerpt: Viral isolates were used to infect a sub-confluent monolayer of Vero cells at a concentration of 75 or 50 plaque forming units (PFU) per well for HSV-1 and HSV-2, respectively. […] CMC medium typically used to create a semisolid interface and prevents indiscrimate viral spreading. Other materials (e.g. agar) may also be used to create this interface.
Cells were fixed with 10% formalin and stained with crystal violet before enumeration of the plaques (microscopic observation or use of fluorescent antibodies for detection is also suitable). The data obtained from these experiments were then expressed as percent inhibition of viral infectivity relative to the no drug control.
Definitions of phenotypic drug susceptibility classification as sensitive or resistant were as follows: ACV, <3 μM or >40 μM; PCV, <10 μM or >40 μM; CDV, <24 μM or >30 μM; FOS, <250 μM or >400 μM; and ACV, <6.5 μM or >40 μM; PCV, <38 μM or >40 μM; FOS, <250 μM or >400 μM for HSV-1 and HSV-2, respectively. Any IC50 values falling in between these sensitive and resistant cut-offs were reported as intermediate resistance.
The phenotype (i.e. reactivity to a drug) of the virus was characterised by the plaque reduction assay as described above.

Work on O=C(O)P(=O)(O)O [Foscarnet, foscarnet] yielded a pIC50 (72 h, isolate HPG053, HSV-1 pol L802R + A834S (2405T>G, 2500G>T), also TK R176W, read-out: Drug susceptibility (IC50 value)) of 3.20, a pIC50 (isolate HPG002, HSV-1 pol E992K (2974G>A), also TK insert (G) nt 430-436, pol A1169T, read-out: Drug susceptibility (IC50 value)) of over 4.30 and a pIC50 (isolate HPG002, HSV-1 pol E992K (2974G>A), also TK insert (G) nt 430-436, pol A1169T, read-out: Drug susceptibility Foscarnet (FOS)) of over 3.60. For the same compound, the pIC50 (isolate HPG003, HSV-1 TK Y172S (515A>C), read-out: Drug susceptibility (IC50 value)) was 4.10, the pIC50 (isolate HPG003, HSV-1 TK Y172S (515A>C), read-out: Drug susceptibility Foscarnet (FOS)) was over 3.60 and the pIC50 (isolate HPG005, HSV-1 TK A37V (110C>T), read-out: Drug susceptibility (IC50 value)) was 4.43. It also gave a pIC50 (isolate HPG005, HSV-1 TK A37V (110C>T), read-out: Drug susceptibility Foscarnet (FOS)) of over 3.60, a pIC50 (isolate HPG008, HSV-1 TK V204G (611T>G), read-out: Drug susceptibility (IC50 value)) of 4.23 and a pIC50 (isolate HPG008, HSV-1 TK V204G (611T>G), read-out: Drug susceptibility Foscarnet (FOS)) of over 3.60. The pIC50 (isolate HPG009, HSV-1 pol E992K (2974G>A), also pol A1169T, read-out: Drug susceptibility (IC50 value)) was 4.11, the pIC50 (isolate HPG009, HSV-1 pol E992K (2974G>A), also pol A1169T, read-out: Drug susceptibility Foscarnet (FOS)) was over 3.60 and the pIC50 (isolate HPG010, HSV-1 TK Q125* (373C>T), read-out: Drug susceptibility (IC50 value)) was 4.33. For the same compound, the pIC50 (isolate HPG010, HSV-1 TK Q125* (373C>T), read-out: Drug susceptibility Foscarnet (FOS)) was over 3.60, the pIC50 (isolate HPG011, HSV-1 TK Q125* (373C>T), read-out: Drug susceptibility (IC50 value)) was 4.25 and the pIC50 (isolate HPG011, HSV-1 TK Q125* (373C>T), read-out: Drug susceptibility Foscarnet (FOS)) was over 3.60. For the same compound, the pIC50 (isolate HPG013, HSV-1 TK M121I (363G>A), read-out: Drug susceptibility (IC50 value)) was 4.11, the pIC50 (isolate HPG013, HSV-1 TK M121I (363G>A), read-out: Drug susceptibility Foscarnet (FOS)) was over 3.60 and the pIC50 (isolate HPG013, HSV-1 pol D83A (248A>C), also TK M121I, pol A1169T, read-out: Drug susceptibility (IC50 value)) was 4.11. For the same compound, the pIC50 (isolate HPG013, HSV-1 pol D83A (248A>C), also TK M121I, pol A1169T, read-out: Drug susceptibility Foscarnet (FOS)) was over 3.60, the pIC50 (isolate HPG014, HSV-1 pol A1115T (3343G>A), read-out: Drug susceptibility (IC50 value)) was 3.85 and the pIC50 (isolate HPG014, HSV-1 pol A1115T (3343G>A), read-out: Drug susceptibility Foscarnet (FOS)) was over 3.60. For the same compound, the pIC50 (isolate HPG014, HSV-1 pol R993C (2977C>T), read-out: Drug susceptibility (IC50 value)) was 3.85, the pIC50 (isolate HPG014, HSV-1 pol R993C (2977C>T), read-out: Drug susceptibility Foscarnet (FOS)) was over 3.60 and the pIC50 (isolate HPG014, HSV-1 pol T54A (160A>G), read-out: Drug susceptibility (IC50 value)) was 3.85. For the same compound, the pIC50 (isolate HPG014, HSV-1 pol T54A (160A>G), read-out: Drug susceptibility Foscarnet (FOS)) was over 3.60, the pIC50 (isolate HPG015, HSV-1 pol 966stop or F965_I966insF (2892_2893insT to 2895_2896insT), read-out: Drug susceptibility (IC50 value)) was 3.79 and the pIC50 (isolate HPG015, HSV-1 pol 966stop or F965_I966insF (2892_2893insT to 2895_2896insT), read-out: Drug susceptibility Foscarnet (FOS)) was over 3.60. The pIC50 (isolate HPG018, HSV-1 TK frameshift (881delC to 885delC), read-out: Drug susceptibility (IC50 value)) was 4.18, the pIC50 (isolate HPG018, HSV-1 TK frameshift (881delC to 885delC), read-out: Drug susceptibility Foscarnet (FOS)) was over 3.60 and the pIC50 (isolate HPG018, HSV-1 pol P1199T (3595C>A), also TK deletion (C) nt 881-885, pol A1169T, read-out: Drug susceptibility (IC50 value)) was 4.18. It also gave a pIC50 (isolate HPG018, HSV-1 pol P1199T (3595C>A), also TK deletion (C) nt 881-885, pol A1169T, read-out: Drug susceptibility Foscarnet (FOS)) of over 3.60, a pIC50 (isolate HPG019, HSV-1 pol K750T (2249A>C), also TK deletion (G) nt 430-436, pol A1169T, read-out: Drug susceptibility (IC50 value)) of 3.72 and a pIC50 (isolate HPG019, HSV-1 pol K750T (2249A>C), also TK deletion (G) nt 430-436, pol A1169T, read-out: Drug susceptibility Foscarnet (FOS)) of over 3.60. It also gave a pIC50 (isolate HPG020, HSV-1 pol S911N (2732G>A), also pol A1169T, read-out: Drug susceptibility (IC50 value)) of 4.00, a pIC50 (isolate HPG020, HSV-1 pol S911N (2732G>A), also pol A1169T, read-out: Drug susceptibility Foscarnet (FOS)) of over 3.60 and a pIC50 (isolate HPG021, HSV-1 pol R681Q (2042G>A), also TK deletion (G) nt 430-436, read-out: Drug susceptibility (IC50 value)) of 3.81. The pIC50 (isolate HPG021, HSV-1 pol R681Q (2042G>A), also TK deletion (G) nt 430-436, read-out: Drug susceptibility Foscarnet (FOS)) was over 3.60, the pIC50 (isolate HPG021, HSV-1 pol T839A (2515A>G), also TK deletion (G) nt 430-436, read-out: Drug susceptibility (IC50 value)) was 3.81 and the pIC50 (isolate HPG021, HSV-1 pol T839A (2515A>G), also TK deletion (G) nt 430-436, read-out: Drug susceptibility Foscarnet (FOS)) was over 3.60. The pIC50 (isolate HPG025, HSV-1 pol E850Q (2548G>C), also TK R216C, read-out: Drug susceptibility (IC50 value)) was 4.00, the pIC50 (isolate HPG025, HSV-1 pol E850Q (2548G>C), also TK R216C, read-out: Drug susceptibility Foscarnet (FOS)) was over 3.60 and the pIC50 (isolate HPG026, HSV-1 pol E850Q (2548G>C), also TK R216C, pol A1169T, read-out: Drug susceptibility (IC50 value)) was 4.17. It also gave a pIC50 (isolate HPG026, HSV-1 pol E850Q (2548G>C), also TK R216C, pol A1169T, read-out: Drug susceptibility Foscarnet (FOS)) of over 3.60, a pIC50 (isolate HPG027, HSV-1 TK V204G (611T>G), also pol S914L, A1169AT, read-out: Drug susceptibility (IC50 value)) of 3.67 and a pIC50 (isolate HPG027, HSV-1 TK V204G (611T>G), also pol S914L, A1169AT, read-out: Drug susceptibility Foscarnet (FOS)) of over 3.60. For the same compound, the pIC50 (isolate HPG027, HSV-1 pol S914L (2741C>T), also TK V204G, pol A1169T, read-out: Drug susceptibility (IC50 value)) was 3.67, the pIC50 (isolate HPG027, HSV-1 pol S914L (2741C>T), also TK V204G, pol A1169T, read-out: Drug susceptibility Foscarnet (FOS)) was over 3.60 and the pIC50 (isolate HPG029, HSV-1 TK Y172S (515A>C), read-out: Drug susceptibility (IC50 value)) was 3.96. The pIC50 (isolate HPG029, HSV-1 TK Y172S (515A>C), read-out: Drug susceptibility Foscarnet (FOS)) was over 3.60, the pIC50 (isolate HPG031, HSV-1 pol E1120A (3359A>C), also a TK resistance mutation (footnote e), read-out: Drug susceptibility (IC50 value)) was 3.96 and the pIC50 (isolate HPG031, HSV-1 pol E1120A (3359A>C), also a TK resistance mutation (footnote e), read-out: Drug susceptibility Foscarnet (FOS)) was over 3.60. It also gave a pIC50 (isolate HPG031, HSV-1 pol G139R (415G>C or 415G>A), also a TK resistance mutation (footnote e), read-out: Drug susceptibility (IC50 value)) of 3.96, a pIC50 (isolate HPG031, HSV-1 pol G139R (415G>C or 415G>A), also a TK resistance mutation (footnote e), read-out: Drug susceptibility Foscarnet (FOS)) of over 3.60 and a pIC50 (isolate HPG032, HSV-1 TK 183* (437_438insA), read-out: Drug susceptibility (IC50 value)) of 4.00. It also gave a pIC50 (isolate HPG032, HSV-1 TK 183* (437_438insA), read-out: Drug susceptibility Foscarnet (FOS)) of over 3.60.
